From publication PMC5814754, “Quantitative, Wide-Spectrum Kinase Profiling in Live Cells for Assessing the Effect of Cellular ATP on Target Engagement” (Cell Chemical Biology, 2018)
Like-named read-outs stand apart in the source and are kept apart here. One block for each molecule: values may come before it.

How the values were obtained:
Assay in all cases: Apparent affinity (EC50) of energy transfer probes by titration onto live HEK293 cells expressing kinase/Nluc fusions (Table S1)
Type in all cases: binding
[1] = target: full-length kinase/Nluc fusion proteins (Homo sapiens, UniProt Q9Y6R4); conditions: MAP3K4, Nluc C; read-out: Probe EC50
[2] = target: full-length kinase/Nluc fusion proteins (Homo sapiens, UniProt Q15418); conditions: RPS6KA1 (NP_002944), Nluc orientation N; read-out: Probe EC50
[3] = target: full-length kinase/Nluc fusion proteins (Homo sapiens, UniProt Q06187); conditions: BTK, Nluc C; read-out: Probe EC50
[4] = target: full-length kinase/Nluc fusion proteins (Homo sapiens, UniProt P45983); conditions: read-out: Probe EC50
[5] = target: full-length kinase/Nluc fusion proteins (Homo sapiens, UniProt Q8IVH8); conditions: MAP4K3, Nluc N; read-out: Probe EC50
[6] = target: full-length kinase/Nluc fusion proteins (Homo sapiens, UniProt Q9BVS4); conditions: RIOK2, Nluc N; read-out: Probe EC50
[7] = target: full-length kinase/Nluc fusion proteins (Homo sapiens, UniProt O75676); conditions: RPS6KA4 (NP_001287731), Nluc orientation N; read-out: Probe EC50
[8] = target: full-length kinase/Nluc fusion proteins (Homo sapiens, UniProt Q9UHD2); conditions: TBK1 (NP_037386), Nluc orientation N; read-out: Probe EC50
[9] = target: full-length kinase/Nluc fusion proteins (Homo sapiens, UniProt Q12852); conditions: MAP3K12, Nluc N; read-out: Probe EC50
[10] = target: full-length kinase/Nluc fusion proteins (Homo sapiens, UniProt P11309); conditions: PIM1, Nluc C; read-out: Probe EC50
[11] = target: full-length kinase/Nluc fusion proteins (Homo sapiens, UniProt Q12851); conditions: MAP4K2, Nluc N; read-out: Probe EC50
[12] = target: full-length kinase/Nluc fusion proteins (Homo sapiens, UniProt Q96L34); conditions: MARK4, Nluc N; read-out: Probe EC50
[13] = target: full-length kinase/Nluc fusion proteins (Homo sapiens, UniProt P08069); conditions: IGF1R, Nluc C; read-out: Probe EC50
[14] = target: full-length kinase/Nluc fusion proteins (Homo sapiens, UniProt P06213); conditions: INSR, Nluc C; read-out: Probe EC50
[15] = target: full-length kinase/Nluc fusion proteins (Homo sapiens, UniProt P53667); conditions: LIMK1, Nluc C; read-out: Probe EC50
[16] = target: full-length kinase/Nluc fusion proteins (Homo sapiens, UniProt Q9UK32); conditions: RPS6KA6 (NP_055311), Nluc orientation N; read-out: Probe EC50
[17] = target: full-length kinase/Nluc fusion proteins (Homo sapiens, UniProt Q12866); conditions: MERTK, Nluc C; read-out: Probe EC50
[18] = target: full-length kinase/Nluc fusion proteins (Homo sapiens, UniProt Q5S007); conditions: LRRK2, Nluc C; read-out: Probe EC50
[19] = target: full-length kinase/Nluc fusion proteins (Homo sapiens, UniProt Q15349); conditions: RPS6KA2 (NP_001305865), Nluc orientation N; read-out: Probe EC50
[20] = target: full-length kinase/Nluc fusion proteins (Homo sapiens, UniProt P33981); conditions: TTK (NP_003309), Nluc orientation C; read-out: Probe EC50
[21] = target: full-length kinase/Nluc fusion proteins (Homo sapiens, UniProt P16591); conditions: FER, Nluc C; read-out: Probe EC50
[22] = target: full-length kinase/Nluc fusion proteins (Homo sapiens, UniProt Q9H1R3); conditions: MYLK2, Nluc C; read-out: Probe EC50
[23] = target: full-length kinase/Nluc fusion proteins (Homo sapiens, UniProt Q15831); conditions: STK11 (NP_000446), Nluc orientation N; read-out: Probe EC50
[24] = target: full-length kinase/Nluc fusion proteins (Homo sapiens, UniProt Q9H0K1); conditions: SNF1LK2 (NP_056006), Nluc orientation N; read-out: Probe EC50
[25] = target: full-length kinase/Nluc fusion proteins (Homo sapiens, UniProt Q07912); conditions: TNK2 (NP_001010938), Nluc orientation C; read-out: Probe EC50
[26] = target: full-length kinase/Nluc fusion proteins (Homo sapiens, UniProt P54753); conditions: EPHB3, Nluc C; read-out: Probe EC50
[27] = target: full-length kinase/Nluc fusion proteins (Homo sapiens, UniProt P00519); conditions: ABL1, Nluc N; read-out: Probe EC50
[28] = target: full-length kinase/Nluc fusion proteins (Homo sapiens, UniProt P42685); conditions: FRK, Nluc C; read-out: Probe EC50
[29] = target: full-length kinase/Nluc fusion proteins (Homo sapiens, UniProt P21709); conditions: EPHA1, Nluc C; read-out: Probe EC50
[30] = target: full-length kinase/Nluc fusion proteins (Homo sapiens, UniProt P42684); conditions: ABL2, Nluc N; read-out: Probe EC50
[31] = target: full-length kinase/Nluc fusion proteins (Homo sapiens, UniProt P57059); conditions: SIK1 (NP_001307572), Nluc orientation N; read-out: Probe EC50

Chain of full-length kinase/Nluc fusion proteins (Homo sapiens, UniProt P45983) (P45983 whole entry, the tested form may be a part): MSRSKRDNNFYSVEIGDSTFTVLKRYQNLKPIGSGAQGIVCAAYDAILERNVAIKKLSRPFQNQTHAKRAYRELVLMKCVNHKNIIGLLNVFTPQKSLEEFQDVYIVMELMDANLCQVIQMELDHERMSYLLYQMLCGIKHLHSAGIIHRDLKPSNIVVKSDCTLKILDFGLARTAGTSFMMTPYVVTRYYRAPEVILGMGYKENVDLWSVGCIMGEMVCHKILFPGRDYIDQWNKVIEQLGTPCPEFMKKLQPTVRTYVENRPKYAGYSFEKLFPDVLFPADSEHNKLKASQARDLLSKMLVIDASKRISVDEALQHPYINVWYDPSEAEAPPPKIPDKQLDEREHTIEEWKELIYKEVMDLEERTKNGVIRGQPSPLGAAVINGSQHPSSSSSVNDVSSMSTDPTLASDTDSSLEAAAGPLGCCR
Chain of full-length kinase/Nluc fusion proteins (Homo sapiens, UniProt Q07912) (Q07912 whole entry, the tested form may be a part): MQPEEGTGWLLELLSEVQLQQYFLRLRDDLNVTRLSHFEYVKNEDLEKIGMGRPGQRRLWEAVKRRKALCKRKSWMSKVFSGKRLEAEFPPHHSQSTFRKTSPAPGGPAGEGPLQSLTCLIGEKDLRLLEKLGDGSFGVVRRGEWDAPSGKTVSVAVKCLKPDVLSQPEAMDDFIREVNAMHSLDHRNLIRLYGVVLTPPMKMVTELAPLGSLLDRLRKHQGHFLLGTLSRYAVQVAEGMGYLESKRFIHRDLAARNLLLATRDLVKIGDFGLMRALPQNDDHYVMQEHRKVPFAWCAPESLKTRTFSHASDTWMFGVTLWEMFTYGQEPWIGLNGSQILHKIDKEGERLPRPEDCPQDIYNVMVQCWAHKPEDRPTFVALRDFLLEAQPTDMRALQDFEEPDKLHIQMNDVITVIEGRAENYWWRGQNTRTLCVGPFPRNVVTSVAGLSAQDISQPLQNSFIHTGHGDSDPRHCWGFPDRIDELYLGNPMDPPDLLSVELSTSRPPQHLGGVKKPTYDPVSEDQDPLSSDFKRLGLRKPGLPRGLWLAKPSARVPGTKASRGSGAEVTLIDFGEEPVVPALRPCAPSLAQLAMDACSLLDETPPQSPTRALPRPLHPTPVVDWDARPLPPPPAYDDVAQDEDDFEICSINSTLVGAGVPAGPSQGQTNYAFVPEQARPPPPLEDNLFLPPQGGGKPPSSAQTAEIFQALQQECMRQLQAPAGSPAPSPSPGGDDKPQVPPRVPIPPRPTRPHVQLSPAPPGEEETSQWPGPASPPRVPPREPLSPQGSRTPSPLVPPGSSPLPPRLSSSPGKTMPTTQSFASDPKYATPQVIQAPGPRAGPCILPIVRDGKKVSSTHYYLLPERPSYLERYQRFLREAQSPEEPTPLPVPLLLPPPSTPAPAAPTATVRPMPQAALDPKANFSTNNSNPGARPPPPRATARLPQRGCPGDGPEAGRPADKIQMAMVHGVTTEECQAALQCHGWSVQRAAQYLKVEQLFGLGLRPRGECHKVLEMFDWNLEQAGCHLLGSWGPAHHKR
Chain of full-length kinase/Nluc fusion proteins (Homo sapiens, UniProt P21709) (P21709 26-976): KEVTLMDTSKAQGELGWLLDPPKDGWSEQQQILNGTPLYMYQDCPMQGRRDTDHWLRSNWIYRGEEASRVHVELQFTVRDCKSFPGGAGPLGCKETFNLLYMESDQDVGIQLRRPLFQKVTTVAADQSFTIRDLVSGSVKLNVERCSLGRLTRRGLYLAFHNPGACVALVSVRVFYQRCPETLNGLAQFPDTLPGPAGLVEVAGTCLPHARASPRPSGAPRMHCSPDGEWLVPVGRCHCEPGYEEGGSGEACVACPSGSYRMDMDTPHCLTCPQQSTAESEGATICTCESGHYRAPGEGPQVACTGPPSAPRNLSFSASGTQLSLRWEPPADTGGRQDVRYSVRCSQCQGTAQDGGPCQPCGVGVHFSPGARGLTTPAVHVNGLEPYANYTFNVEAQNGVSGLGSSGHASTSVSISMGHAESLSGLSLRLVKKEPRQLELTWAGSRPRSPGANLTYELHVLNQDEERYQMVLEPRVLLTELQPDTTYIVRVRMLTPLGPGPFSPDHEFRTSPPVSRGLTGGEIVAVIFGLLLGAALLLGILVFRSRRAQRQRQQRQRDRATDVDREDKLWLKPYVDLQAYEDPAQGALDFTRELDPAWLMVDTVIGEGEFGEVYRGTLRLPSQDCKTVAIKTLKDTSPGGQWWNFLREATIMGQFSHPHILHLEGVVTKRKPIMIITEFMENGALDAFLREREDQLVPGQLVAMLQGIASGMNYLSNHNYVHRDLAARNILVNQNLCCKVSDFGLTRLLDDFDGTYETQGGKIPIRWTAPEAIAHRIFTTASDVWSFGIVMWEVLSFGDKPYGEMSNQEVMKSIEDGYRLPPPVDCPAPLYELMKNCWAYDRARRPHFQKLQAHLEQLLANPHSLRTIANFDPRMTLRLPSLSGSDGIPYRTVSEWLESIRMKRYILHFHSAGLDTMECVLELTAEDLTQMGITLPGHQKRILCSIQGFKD
Chain of full-length kinase/Nluc fusion proteins (Homo sapiens, UniProt O75676) (O75676 whole entry, the tested form may be a part): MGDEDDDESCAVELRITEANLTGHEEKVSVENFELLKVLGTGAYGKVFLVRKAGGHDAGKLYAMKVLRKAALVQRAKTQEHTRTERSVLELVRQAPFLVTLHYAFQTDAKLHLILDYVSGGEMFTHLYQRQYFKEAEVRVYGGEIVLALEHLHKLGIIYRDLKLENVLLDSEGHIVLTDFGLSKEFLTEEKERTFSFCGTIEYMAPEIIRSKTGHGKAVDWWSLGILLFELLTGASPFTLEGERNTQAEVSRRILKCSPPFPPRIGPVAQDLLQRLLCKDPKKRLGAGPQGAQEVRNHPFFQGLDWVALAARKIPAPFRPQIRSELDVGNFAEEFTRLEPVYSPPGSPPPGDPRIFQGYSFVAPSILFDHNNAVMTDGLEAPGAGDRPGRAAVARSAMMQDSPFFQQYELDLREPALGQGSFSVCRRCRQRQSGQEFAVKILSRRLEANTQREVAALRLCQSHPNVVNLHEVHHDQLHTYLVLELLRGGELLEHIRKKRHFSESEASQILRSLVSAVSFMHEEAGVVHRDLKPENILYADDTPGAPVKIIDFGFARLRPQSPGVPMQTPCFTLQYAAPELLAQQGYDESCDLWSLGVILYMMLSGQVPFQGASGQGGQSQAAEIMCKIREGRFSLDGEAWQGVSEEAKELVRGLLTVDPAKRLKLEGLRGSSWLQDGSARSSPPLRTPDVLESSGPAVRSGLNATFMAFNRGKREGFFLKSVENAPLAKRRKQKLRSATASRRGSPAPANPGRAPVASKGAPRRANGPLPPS
Chain of full-length kinase/Nluc fusion proteins (Homo sapiens, UniProt Q9BVS4) (Q9BVS4 whole entry, the tested form may be a part): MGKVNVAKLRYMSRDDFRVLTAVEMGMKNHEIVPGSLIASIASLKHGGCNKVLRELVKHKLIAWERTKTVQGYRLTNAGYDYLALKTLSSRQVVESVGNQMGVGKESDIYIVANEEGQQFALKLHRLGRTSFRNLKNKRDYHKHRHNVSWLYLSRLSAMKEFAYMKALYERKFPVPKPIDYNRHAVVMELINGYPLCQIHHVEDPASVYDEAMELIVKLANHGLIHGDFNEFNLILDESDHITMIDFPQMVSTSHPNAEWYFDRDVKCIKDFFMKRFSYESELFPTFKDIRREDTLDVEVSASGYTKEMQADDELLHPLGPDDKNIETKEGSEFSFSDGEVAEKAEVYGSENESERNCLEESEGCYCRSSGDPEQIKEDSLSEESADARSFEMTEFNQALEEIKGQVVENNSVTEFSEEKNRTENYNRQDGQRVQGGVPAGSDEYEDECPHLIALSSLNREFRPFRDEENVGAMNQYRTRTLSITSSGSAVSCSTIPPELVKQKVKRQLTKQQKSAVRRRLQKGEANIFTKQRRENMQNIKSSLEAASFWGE
Chain of full-length kinase/Nluc fusion proteins (Homo sapiens, UniProt Q06187) (Q06187 whole entry, the tested form may be a part): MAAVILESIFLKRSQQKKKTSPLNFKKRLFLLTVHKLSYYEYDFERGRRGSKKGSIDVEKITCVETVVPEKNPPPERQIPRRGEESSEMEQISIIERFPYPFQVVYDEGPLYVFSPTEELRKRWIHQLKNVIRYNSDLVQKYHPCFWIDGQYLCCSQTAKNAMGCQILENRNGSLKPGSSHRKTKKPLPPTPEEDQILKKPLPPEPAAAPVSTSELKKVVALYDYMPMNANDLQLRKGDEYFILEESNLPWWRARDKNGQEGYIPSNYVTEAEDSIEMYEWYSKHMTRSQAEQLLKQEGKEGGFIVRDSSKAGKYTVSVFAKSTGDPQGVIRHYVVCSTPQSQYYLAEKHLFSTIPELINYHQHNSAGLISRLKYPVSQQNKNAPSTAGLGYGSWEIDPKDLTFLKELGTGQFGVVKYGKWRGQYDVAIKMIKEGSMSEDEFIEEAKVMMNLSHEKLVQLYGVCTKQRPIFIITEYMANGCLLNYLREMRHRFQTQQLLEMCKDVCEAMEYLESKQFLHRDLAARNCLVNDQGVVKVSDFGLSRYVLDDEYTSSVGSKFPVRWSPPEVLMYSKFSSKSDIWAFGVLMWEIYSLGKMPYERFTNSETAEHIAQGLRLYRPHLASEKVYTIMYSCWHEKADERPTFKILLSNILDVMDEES
Chain of full-length kinase/Nluc fusion proteins (Homo sapiens, UniProt Q9H1R3) (Q9H1R3 whole entry, the tested form may be a part): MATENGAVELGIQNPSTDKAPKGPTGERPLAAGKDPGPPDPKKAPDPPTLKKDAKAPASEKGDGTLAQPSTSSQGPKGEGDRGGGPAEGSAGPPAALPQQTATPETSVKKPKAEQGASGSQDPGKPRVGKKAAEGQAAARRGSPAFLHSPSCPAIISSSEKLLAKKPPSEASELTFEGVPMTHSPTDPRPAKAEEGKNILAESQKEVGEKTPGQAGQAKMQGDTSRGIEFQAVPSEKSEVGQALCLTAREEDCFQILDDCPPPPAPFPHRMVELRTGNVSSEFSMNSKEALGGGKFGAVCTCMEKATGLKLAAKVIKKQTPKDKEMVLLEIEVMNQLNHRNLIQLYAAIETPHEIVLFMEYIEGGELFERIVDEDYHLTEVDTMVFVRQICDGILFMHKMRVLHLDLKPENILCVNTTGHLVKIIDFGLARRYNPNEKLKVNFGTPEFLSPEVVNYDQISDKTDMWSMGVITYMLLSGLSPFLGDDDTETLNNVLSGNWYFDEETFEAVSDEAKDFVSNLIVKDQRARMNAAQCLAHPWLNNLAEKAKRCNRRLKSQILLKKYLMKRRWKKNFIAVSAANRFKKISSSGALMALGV

EC50 [1]: > 1000 nM
EC50 [2]: 200 nM
EC50 [3]: 600 nM
EC50 ([4]; JNK1, Nluc N): > 1000 nM
EC50 ([4]; MAPK8, Nluc N): 300 nM
EC50 [5]: > 1000 nM
EC50 [6]: > 1000 nM
EC50 [7]: 100 nM
EC50 [8]: 400 nM
EC50 [9]: > 1000 nM
EC50 [10]: > 1000 nM
EC50 [11]: > 1000 nM
EC50 [12]: > 1000 nM
EC50 [13]: > 1000 nM
EC50 [14]: > 1000 nM
EC50 [15]: > 1000 nM
EC50 [16]: 400 nM
EC50 [17]: 300 nM
EC50 [18]: > 1000 nM
EC50 [19]: 600 nM
EC50 [20]: 300 nM
EC50 [21]: > 1000 nM
EC50 [22]: > 1000 nM
EC50 [23]: > 1000 nM
Structure (SMILES): CNC(=O)c1ccccc1Nc1nc(Nc2ccc(N3CCN(C(=O)CCOCCOCCOCCOCCNC(=O)CCc4ccc5n4[B-](F)(F)[N+]4=C(c6ccc[nH]6)C=CC4=C5)CC3)cc2)ncc1Cl [Energy Transfer Probe 5, 2-((2-((4-(4-(1-amino-3,6,9,12-tetraoxapentadecan-15-oyl)piperazin-1-yl)phenyl)amino)-5-chloropyrimidin-4-yl)amino)-N-methylbenzamide-NanoBRET 590]

EC50 [24]: 100 nM
EC50 [25]: 100 nM
EC50 [26]: 200 nM
EC50 [27]: 200 nM
EC50 [28]: 400 nM
EC50 [29]: 300 nM
EC50 [30]: 10 nM
EC50 [31]: 100 nM
Structure (SMILES): Cc1nc(Nc2ncc(C(=O)Nc3c(C)cccc3Cl)s2)cc(N2CCN(CCOCCNC(=O)CCc3ccc4n3[B-](F)(F)[N+]3=C(c5ccc[nH]5)C=CC3=C4)CC2)n1 [Energy Transfer Probe 6, 2-((6-(4-(2-(2-aminoethoxy)ethyl)piperazin-1-yl)-2-methylpyrimidin-4-yl)amino)-N-(2-chloro-6-methylphenyl)thiazole-5-carboxamide-NanoBRET 590]
